# Values of other authors as cited in patent US20200037638A1, “FORMULATIONS” (Molecular Infusions, LLC., priority 2017, published 2020).
compound,measurement,setting,value
"CCCCCc1cc(O)c2c(c1)OC(C)(C)[C@@H]1CCC(C)=C[C@@H]21 [dronabinol, Δ9-tetrahydrocannabinol]",Duration of appetite stimulant effect,after administration,≥ 24 h
same,Duration of action for psychoactive effects,after oral administration,4 to 6 h
same,Onset of action,after oral administration,0.5 to 1 h
same,Peak effect (time),after oral administration,2 to 4 h
same,Absorbed,after single oral doses,90 to 95%
same,Administered dose reaching the systemic circulation,"oral, first pass hepatic metabolism and high lipid solubility",10 to 20%
